Patent US20240376073A1 (Hoffmann-La Roche Inc., priority 2021, published 2024)
Counter-ions that a name gives are not always drawn.

system: Acinetobacter baumannii ATCC17961; assay: Antimicrobial susceptibility testing: 90% growth inhibitory concentration (IC90) determination; assay type: cell-based; details: Acinetobacter baumannii ATCC17961; Iso-Sensitest broth; growth by OD 600 nm over 16 h; 35±2° C.; read-out: ATCC 17961 IC90
Summary of the method: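 Twofold serial dilutions (e.g. 50 to 0.097 μM final) in Iso-Sensitest broth, inoculated at ~5×10^(5) CFU/ml, incubated at 35±2° C. OD600 read every 20 min over 16 h; IC90 derived from growth inhibition during logarithmic growth.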

SMILES	IC90
Cn1c(-c2ccc(OC(F)F)c(F)c2Cl)cnc1C(=O)Nc1ccc(C(=O)N2CCN(C(=O)C3CC[N+](C)(CCN)CC3)CC2)c(Cl)c1 (stereo not shown) [Example C12, N-[4-[4-[1-(2-aminoethyl)-1-methyl-piperidin-1-ium-4-carbon-yl]piperazine-1-carbonyl]-3-chloro-phenyl]-5-[2-chloro-4-(difluorometh-oxy)-3-fluoro-phenyl]-1-methyl-imidazole-2-carboxamide; formic acid; formate]	43 nM
Cn1c(-c2ccc(OC(F)F)c(F)c2F)cnc1C(=O)Nc1ccc(C(=O)N2CCN(C(=O)C3CC[N+](C)(CC4CNC4)CC3)CC2)c(Cl)c1 (stereo not shown) [Example C13, N-[4-[4-[1-(azet-idin-3-ylmeth-yl)-1-methyl-piper-idin-1-ium-4-carbonyl]piper-azine-1-carbon-yl]-3-chloro-phen-yl]-5-[4-(difluoro-methoxy)-2,3-difluoro-phenyl]-1-methyl-imid-azole-2-carbox-amide; 2,2,2-trifluoroacetate; 2,2,2-trifluoro-acetic acid]	73 nM
Cn1c(-c2ccc(OC(F)F)c(F)c2F)cnc1C(=O)Nc1ccc(C(=O)N2CCN(C(=O)C3CC[N+](C)(CC4CCNC4)CC3)CC2)c(Cl)c1 (stereo not shown) [Example C14, N-[3-chloro-4-[4-[1-methyl-1-(pyrrolidin-3-yl-methyl)piperidin-1-ium-4-carbon-yl]piperazine-1-carbonyl]phenyl]-5-[4-(difluoro-methoxy)-2,3-difluoro-phenyl]-1-methyl-imid-azole-2-carbox-amide; formic acid; formate]	49 nM
Cn1c(-c2ccc(OC(F)F)c(F)c2Cl)cnc1C(=O)Nc1ccc(C(=O)N2CCN(C(=O)C3CC[N+](C)(CC4CNC4)CC3)CC2)c(Cl)c1 (stereo not shown) [Example C15, N-[4-[4-[1-(azetidin-3-yl-methyl)-1-meth-yl-piperidin-1-ium-4-carbonyl]-piperazine-1-car-bonyl]-3-chloro-phenyl]-5-[2-chloro-4-(difluoro-methoxy)-3-fluoro-phenyl]-1-methyl-imidazole-2-carboxamide; formic acid; formate]	73 nM
COc1ccc(-c2cnc(C(=O)Nc3ccc(C(=O)N4CCN(C(=O)C5CC[N+](C)(CC6CNC6)CC5)CC4)c(Cl)c3)n2C)c(F)c1F (stereo not shown) [Example C16, N-[4-[4-[1-(azet-idin-3-ylmethyl)-1-methyl-piper-idin-1-ium-4-carbonyl]piper-azine-1-carbon-yl]-3-chloro-phenyl]-5-(2,3-difluoro-4-meth-oxy-phenyl)-1-methyl-imid-azole-2-carbox-amide; formic acid; formate]	100 nM
CCc1cc(NC(=O)c2ncc(-c3ccc(OC(F)F)c(F)c3F)n2C)ccc1C(=O)N1CCN(C(=O)C2CC[N+](C)(CC3CCNC3)CC2)CC1 (stereo not shown) [Example C17, 5-[4-(difluoro-methoxy)-2,3-difluoro-phenyl]-N-[3-ethyl-4-[4-[1-methyl-1-(pyr-rolidin-3-ylmeth-yl)piperidin-1-ium-4-carbonyl]-piperazine-1-carbonyl]phenyl]-1-methyl-imid-azole-2-carbox-amide; 2,2,2-trifluoroacetate; 2,2,2-trifluoro-acetic acid]	220 nM
Cn1c(-c2ccc(OC(F)F)c(F)c2F)cnc1C(=O)Nc1ccc(C(=O)N2CCN(C(=O)CC3CC[N+](C)(CC4CCNC4)C3)CC2)c(Cl)c1 (stereo not shown) [Example C18, N-[3-chloro-4-[4-[2-[1-methyl-1-(pyrrolidin-3-yl-methyl)pyrrol-idin-1-ium-3-yl]-acetyl]piperazine-1-carbonyl]phen-yl]-5-[4-(difluoro-methoxy)-2,3-difluoro-phenyl]-1-methyl-imid-azole-2-carbox-amide; 2,2,2-trifluoroacetate; 2,2,2-trifluoro-acetic acid]	220 nM
CCc1cc(NC(=O)c2ncc(-c3ccc(OC(F)F)c(F)c3F)n2C)ccc1C(=O)N1CCN(C(=O)C2CC[N+](C)(CC3CNC3)CC2)CC1 (stereo not shown) [Example C19]	270 nM
CCc1cc(NC(=O)c2ncc(-c3ccc(OC(F)F)c(F)c3F)n2C)ccc1C(=O)N1CCN(C(=O)C2CC[N+](C)(CC3CCNCC3)CC2)CC1 (stereo not shown) [Example C20, 5-[4-(difluoro-methoxy)-2,3-difluoro-phenyl]-N-[3-ethyl-4-[4-[1-methyl-1-(4-piperidylmethyl)-piperidin-1-ium-4-carbonyl]-piperazine-1-carbonyl]phenyl]-1-methyl-imid-azole-2-carbox-amide; 2,2,2-trifluoroacetate; 2,2,2-trifluoro-acetic acid]	80 nM
CCc1cc(NC(=O)c2ncc(-c3ccc(OC(F)F)c(F)c3F)n2C)ccc1C(=O)N1CCN(C(=O)C2CC[N+](CC(N)=O)(CC3CNC3)CC2)CC1 (stereo not shown) [Example C21]	220 nM
COc1ccc(-c2cnc(C(=O)Nc3ccc(C(=O)NCc4cnn(CC5C[N+](C)(C)C5)c4)c(Cl)c3)n2C)c(F)c1F [Example C22, N-[3-chloro-4-[[1-[(1,1-dimethylazetidin-1-ium-3-yl)methyl]pyrazol-4-yl]methylcarbamoyl]phenyl]-5-(2,3-difluoro-4-methoxy-phenyl)-1-methyl-imidazole-2-carboxamide;formate]	230 nM
COc1ccc(-c2cnc(C(=O)Nc3ccc(C(=O)NCc4c[n+](C)c(NC(=O)C[N+](C)(C)C)s4)c(Cl)c3)n2C)c(F)c1F [Example C23, [2-[[5-[[[2-chloro-4-[[5-(2,3-difluoro-4-methoxy-phenyl)-1-methyl-imidazole-2-carbonyl]amino]benzoyl]amino]methyl]-3-methyl-thiazol-3-ium-2-yl]amino]-2-oxo-ethyl]-trimethyl-ammonium;formate]	76 nM
Cn1c(-c2ccc(OC(F)F)c(F)c2F)cnc1C(=O)Nc1ccc(C(=O)N2CCN(C(=O)C[N+]3(C)CCCC3)CC2)c(Cl)c1 [Example C25, N-[3-chloro-4-[4-[2-(1-methyl-pyrrolidin-1-ium-1-yl)acetyl]piper-azine-1-carbonyl]-phenyl]-5-[4-(difluorometh-oxy)-2,3-difluoro-phenyl]-1-methyl-imidazole-2-carboxamide; formate]	43 nM
Cn1c(-c2ccc(OC(F)F)c(F)c2F)cnc1C(=O)Nc1ccc(C(=O)N2CCN(C(=O)C[N+]3(C)CCC(C(N)=O)C3)CC2)c(Cl)c1 (stereo not shown) [Example C26, N-[4-[4-[2-(3-carbamoyl-1-methyl-pyrrolidin-1-ium-1-yl)acet-yl]piperazine-1-carbonyl]-3-chloro-phenyl]-5-[4-(difluorometh-oxy)-2,3-difluoro-phenyl]-1-methyl-imidazole-2-carboxamide; formate]	69 nM
COc1ccc(-c2cnc(C(=O)Nc3ccc(C(=O)N4CCN(C(=O)C[N+]5(C)CCOCC5)CC4)c(Cl)c3)n2C)c(F)c1F [Example C27, N-[3-chloro-4-[4-[2-(4-methyl-morpholin-4-ium-4-yl)acetyl]-piperazine-1-carbonyl]phenyl]-5-(2,3-difluoro-4-methoxy-phenyl)-1-methyl-imid-azole-2-carbox-amide; formate]	120 nM
COc1ccc(-c2cnc(C(=O)Nc3ccc(C(=O)N4CCN(C(=O)C[N+]5(C)CCCC5)CC4)c(Cl)c3)n2C)c(F)c1F [Example C28, N-[3-chloro-4-[4-[2-(1-methylpyr-rolidin-1-ium-1-yl)acetyl]piper-azine-1-carbonyl]-phenyl]-5-(2,3-difluoro-4-meth-oxy-phenyl)-1-methyl-imidazole-2-carboxamide; formate]	130 nM
COc1ccc(-c2cnc(C(=O)Nc3ccc(C(=O)N4CCN(C(=O)C[N+]5(C)CCC(O)C5)CC4)c(Cl)c3)n2C)c(F)c1F (stereo not shown) [Example C29, N-[3-chloro-4-[4-[2-(3-hydroxy-1-methyl-pyrrolidin-1-ium-1-yl)acet-yl]piperazine-1-carbonyl]phenyl]-5-(2,3-difluoro-4-methoxy-phenyl)-1-methyl-imid-azole-2-carbox-amide; formate]	100 nM
Cn1c(-c2ccc(OC(F)F)c(F)c2F)cnc1C(=O)Nc1ccc(C(=O)N2CCN(C(=O)C3CC[N+](C)(CC(=O)O)CC3)CC2)c(Cl)c1 (stereo not shown) [Example C31, 2-[4-[4-[2-chloro-4-[[5-[4-(difluorometh-oxy)-2,3-difluoro-phen-yl]-1-methyl-imidazole-2-carbonyl]amino]-benzoyl]piper-azine-1-carbon-yl]-1-methyl-piperidin-1-ium-1-yl]acetic acid; 2,2,2-trifluoro-acetate]	410 nM

same assay, conditions: Acinetobacter baumannii, ATCC17961, 16 h, read-out: ATCC 17961 IC90, Acinetobacter baumannii ATCC17961; Iso-Sensitest broth; growth by OD 600 nm over 16 h; 35±2° C.

SMILES	IC90
Cn1c(-c2ccc(OC(F)F)c(F)c2Cl)cnc1C(=O)Nc1ccc(C(=O)N2CCN(C(=O)C3CC[N+](CC(N)=O)(CC4CNC4)CC3)CC2)c(Cl)c1 (stereo not shown) [Example C10]	100 nM
Cn1c(-c2ccc(OC(F)F)c(F)c2F)cnc1C(=O)Nc1ccc(C(=O)N2CCN(C(=O)C[N+]3(C)CCNCC3)CC2)c(Cl)c1 [Example C24, N-[3-chloro-4-[4-[2-(1-methylpiperazin-1-ium-1-yl)acetyl]piperazine-1-carbonyl]phenyl]-5-[4-(difluoromethoxy)-2,3-difluoro-phenyl]-1-methyl-imidazole-2-carboxamide;2,2,2-trifluoroacetate;2,2,2-trifluoroacetic acid]	63 nM
COc1ccc(-c2cnc(C(=O)Nc3ccc(C(=O)N4CCN(C(=O)C5CC[N+](CCCN)(CC(=O)O)CC5)CC4)c(Cl)c3)n2C)c(F)c1F (stereo not shown) [Example C32, 2-[1-(3-aminopropyl)-4-[4-[2-chloro-4-[[5-(2,3-difluoro-4-methoxy-phenyl)-1-methyl-imidazole-2-carbonyl]amino]benzoyl]piperazine-1-carbonyl]piperidin-1-ium-1-yl]acetic acid; formate]	810 nM
COc1ccc(-c2cnc(C(=O)Nc3ccc(C(=O)N4CCN(C(=O)C5CC[N+](CC(=O)O)(CC6CNC6)CC5)CC4)c(Cl)c3)n2C)c(F)c1F (stereo not shown) [Example C33, 2-[1-(azetidin-3-ylmethyl)-4-[4-[2-chloro-4-[[5-(2,3-difluoro-4-methoxy-phenyl)-1-methyl-imidazole-2-carbonyl]amino]benzoyl]piperazine-1-carbonyl]piperidin-1-ium-1-yl]acetic acid; formate]	490 nM
